Values of other authors in patent US11458199B2, “Liposome formulations” (OPKO Pharmaceuticals, LLC, priority 2012, dated 2022).

Experiments:
PCME = details: retrospective study, prevention of PCME after cataract surgery
VEGF = details: read-out: binding affinity to VEGF (Kd)
Sequence of VEGF (P15692 214-315 limits assumed): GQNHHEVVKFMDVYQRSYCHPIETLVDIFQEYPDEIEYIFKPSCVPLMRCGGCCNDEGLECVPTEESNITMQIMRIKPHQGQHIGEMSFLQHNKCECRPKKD

Kd (VEGF) [nM] | Compound | postoperative rate of macular edema (PCME) [%]
 | C[C@@H]1C[C@H]2[C@@H]3CCC4=CC(=O)C=C[C@]4(C)[C@@]3(F)[C@@H](O)C[C@]2(C)[C@@]1(O)C(=O)COP(=O)(O)O [dexamethasone sodium phosphate 0.1%, dexamethasone sodium phosphate] | 4.1
 | CC(=O)OCC(=O)[C@@]1(O)CC[C@H]2[C@@H]3CCC4=CC(=O)C=C[C@]4(C)[C@H]3[C@@H](O)C[C@@]21C [prednisolone acetate 1%, prednisolone acetate] | 4.0
~0.14 | Ranibizumab: recombinant humanized IgG1 kappa isotype monoclonal antibody fragment that binds VEGF-A | 
